Columns and labels:
rice [1] = experiment: Test B flooded paddy test; type: in vivo, Oryza sativa; conditions: 1000 g ai/ha, scale 0 to 100 (0 no effect, 100 complete control)
Procedure, shortened: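 Read-out: visual comparison with controls, scored 0 to 100, where 100 means complete control and 0 no effect. Formulated chemicals were applied postemergence to plants 2–18 cm tall (1- to 4-leaf), or to flooded-paddy plants at the 2-leaf stage, then held 13 to 15 days under glass.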

Surinam grass = experiment: Test B pre-/postemergence herbicide test; type: in vivo, Urochloa decumbens; conditions: for Surinam Grass plant response rating: postemergence
Procedure, shortened: (§1)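 Visual rating, 0 (no effect) to 100 (complete control), versus untreated controls after 13–15 d in greenhouse. Pre- and postemergence applications (postemergence plants 2–18 cm, 1–4 leaves); flooded paddy arm at 2-leaf stage. Compounds in non-phytotoxic solvent plus surfactant.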

blackgrass = experiment: Test B postemergence herbicide test; type: in vivo, Alopecurus myosuroides; conditions: postemergence
Procedure, shortened: (§2)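 Formulated test chemicals went onto postemergence plants measuring 2 to 18 cm, at one to four leaves. For the paddy assay, species had reached two leaves. Scoring took place 13–15 days later by eye, relative to untreated plants, using 0 for no effect up to 100 for full control.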

large crabgrass [2] = experiment: Test B pre-/postemergence herbicide test; type: in vivo, Digitaria sanguinalis; conditions: for Crabgrass, Large plant response rating: postemergence
Procedure, shortened: as §1

pigweed = experiment: Test B pre-/postemergence herbicide test; type: in vivo, Amaranthus retroflexus; conditions: for Pigweed plant response rating: postemergence
Procedure, shortened: as §1

[3] = test system: small flower umbrella sedge; experiment: Test B flooded paddy test; type: in vivo, Cyperus difformis; conditions: 1000 g ai/ha, scale 0 to 100 (0 no effect, 100 complete control)
Procedure, shortened: as §2

ducksalad = experiment: Test B flooded paddy test; type: in vivo, Heteranthera limosa; conditions: 1000 g ai/ha, scale 0 to 100 (0 no effect, 100 complete control)
Procedure, shortened: as §2

velvetleaf [4] = experiment: Test B pre-/postemergence herbicide test; type: in vivo, Abutilon theophrasti; conditions: for Velvetleaf plant response rating: postemergence
Procedure, shortened: as §1

cocklebur = experiment: Test B pre-/postemergence herbicide test; type: in vivo, Xanthium strumarium; conditions: for Cocklebur plant response rating: postemergence
Procedure, shortened: (§3)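 Plants compared with untreated controls 13–15 days post-treatment and given a visual 0–100 injury score. Applications: preemergence to seeds; postemergence at 1- to 4-leaf (2–18 cm); paddy species flooded, 2-leaf stage. Vehicle non-phytotoxic, surfactant included.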

barnyardgrass [5] = experiment: Test B pre-/postemergence herbicide test; type: in vivo, Echinochloa crus-galli; conditions: for Barnyardgrass plant response rating: postemergence
Procedure, shortened: as §3

redroot pigweed = experiment: Test A pre-/postemergence herbicide test; type: in vivo, Amaranthus retroflexus
Procedure, shortened: (§4)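 Visual injury rating on a 0–100 scale (0 no effect, 100 complete control) versus untreated controls, about ten days after treatment in greenhouse. Pre: directed soil spray onto seeded sandy loam. Post: spray to runoff on plants 2–10 cm tall at one- to two-leaf stage.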

lambsquarters = experiment: Test B pre-/postemergence herbicide test; type: in vivo, Chenopodium album; conditions: for Lambsquarters plant response rating: postemergence
Procedure, shortened: as §1

large crabgrass [6] = experiment: Test A pre-/postemergence herbicide test; type: in vivo, Digitaria sanguinalis
Procedure, shortened: as §4

velvetleaf [7] = experiment: Test A pre-/postemergence herbicide test; type: in vivo, Abutilon theophrasti
Procedure, shortened: as §4

giant foxtail [8] = experiment: Test B pre-/postemergence herbicide test; type: in vivo, Setaria faberi; conditions: for Foxtail, Giant plant response rating: postemergence
Procedure, shortened: as §1

rice [9] = experiment: Test B pre-/postemergence herbicide test; type: in vivo, Oryza sativa; conditions: 0 = no effect, 100 = complete control, preemergence
Procedure, shortened: as §1

morningglory [10] = experiment: Test B pre-/postemergence herbicide test; type: in vivo, Ipomoea coccinea; conditions: for Morningglory plant response rating: postemergence
Procedure, shortened: as §3

wild oat = experiment: Test B postemergence herbicide test; type: in vivo, Avena fatua; conditions: postemergence
Procedure, shortened: (§5)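 After treating 2-leaf paddy plants or 2–18 cm postemergence plants (1 to 4 leaves) with formulated chemical, researchers kept them in a greenhouse for 13–15 days. Effects were judged visually versus controls: 0 indicates none, 100 total control.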

barnyardgrass [11] = experiment: Test B flooded paddy test; type: in vivo, Echinochloa crus-galli; conditions: 1000 g ai/ha, scale 0 to 100 (0 no effect, 100 complete control)
Procedure, shortened: as §2

morningglory [12] = experiment: Test A pre-/postemergence herbicide test; type: in vivo, Ipomoea spp.
Procedure, shortened: as §4

corn = experiment: Test B pre-/postemergence herbicide test; type: in vivo, Zea mays; conditions: for Corn plant response rating: postemergence
Procedure, shortened: as §1

giant foxtail [13] = experiment: Test A pre-/postemergence herbicide test; type: in vivo, Setaria faberi
Procedure, shortened: as §4

barnyardgrass [14] = experiment: Test A pre-/postemergence herbicide test; type: in vivo, Echinochloa crus-galli
Procedure, shortened: as §4

wheat = experiment: Test B postemergence herbicide test; type: in vivo, Triticum aestivum; design: key to Wheat plant response rating: 0 = no effect, 100 = complete control; conditions: postemergence
Procedure, shortened: as §5

[15] = 125 g ai/ha, 0 = no effect, 100 = complete control, preemergence
[16] = 500 g ai/ha, visual rating, 0 = no effect, 100 = complete control, preemergence
[17] = 125 g ai/ha, visual rating, scale 0 (no effect) to 100 (complete control)
[18] = 500 g ai/ha, scale 0 to 100, 0 is no effect, 100 is complete control
[19] = Postemergence, 500 g ai/ha, 0 to 100 scale, 0 no effect, 100 complete control
[20] = Postemergence, 2000 g ai/ha, 0 to 100 scale, 0 no effect, 100 complete control
[21] = Preemergence, 2000 g ai/ha, visual rating, 0 to 100 scale (0 no effect, 100 complete control)
[22] = preemergence, 500 g ai/ha, visual injury, 0 to 100 scale (0 no effect, 100 complete control)

CCn1nc(C(C)(C)C)cc1C(=O)Nc1ccnc(C(=O)NCCF)c1 [Compound 284]
Rice plant response rating (rice [1]): 10 | Surinam Grass plant response rating (0 to 100 scale) (Surinam grass; [15]): 0 | Plant response rating, Surinam Grass (Surinam grass; [16]): 10 | Surinam Grass plant response rating (Surinam grass; [17]): 0 | Surinam Grass plant response rating (Surinam grass; [18]): 20 | Blackgrass plant response rating (blackgrass; [17]): 20 | Blackgrass plant response rating (blackgrass; [18]): 40 | Crabgrass, Large plant response rating (0 to 100 scale) (large crabgrass [2]; [15]): 0 | Plant response rating, Crabgrass, Large (large crabgrass [2]; [16]): 90 | Crabgrass, Large plant response rating (large crabgrass [2]; [17]): 0 | Crabgrass, Large plant response rating (large crabgrass [2]; [18]): 10 | Pigweed plant response rating (0 to 100 scale) (pigweed; [15]): 90 | Plant response rating, Pigweed (pigweed; [16]): 100 | Pigweed plant response rating (pigweed; [17]): 60 | Pigweed plant response rating (pigweed; [18]): 70 | Sedge, Umbrella plant response rating [3]: 0 | Ducksalad plant response rating (ducksalad): 70 | Velvetleaf plant response rating (0 to 100 scale) (velvetleaf [4]; [15]): 0 | Plant response rating, Velvetleaf (velvetleaf [4]; [16]): 60 | Velvetleaf plant response rating (velvetleaf [4]; [17]): 0 | Velvetleaf plant response rating (velvetleaf [4]; [18]): 0 | Cocklebur plant response rating (0 to 100 scale) (cocklebur; [15]): 0 | Plant response rating, Cocklebur (cocklebur; [16]): 0 | Cocklebur plant response rating (cocklebur; [17]): 0 | Cocklebur plant response rating (cocklebur; [18]): 0 | Barnyardgrass plant response rating (0 to 100 scale) (barnyardgrass [5]; [15]): 0 | Plant response rating, Barnyardgrass (barnyardgrass [5]; [16]): 80 | Barnyardgrass plant response rating (barnyardgrass [5]; [17]): 0 | Barnyardgrass plant response rating (barnyardgrass [5]; [18]): 0 | Pigweed plant response rating (redroot pigweed; [19]): 95 | Plant response rating, Pigweed (redroot pigweed; [20]): 100 | Pigweed plant response rating (redroot pigweed; [21]): 100 | Pigweed plant response rating (redroot pigweed; [22]): 85 | Lambsquarters plant response rating (0 to 100 scale) (lambsquarters; [15]): 90 | Plant response rating, Lambsquarters (lambsquarters; [16]): 100 | Lambsquarters plant response rating (lambsquarters; [17]): 50 | Lambsquarters plant response rating (lambsquarters; [18]): 50 | Crabgrass, Large plant response rating (large crabgrass [6]; [19]): 20 | Plant response rating, Crabgrass, Large (large crabgrass [6]; [20]): 20 | Crabgrass, Large plant response rating (large crabgrass [6]; [21]): 80 | Crabgrass, Large plant response rating (large crabgrass [6]; [22]): 15 | Velvetleaf plant response rating (velvetleaf [7]; [19]): 30 | Plant response rating, Velvetleaf (velvetleaf [7]; [20]): 35 | Velvetleaf plant response rating (velvetleaf [7]; [21]): 40 | Velvetleaf plant response rating (velvetleaf [7]; [22]): 10 | Foxtail, Giant plant response rating (0 to 100 scale) (giant foxtail [8]; [15]): 0 | Plant response rating, Foxtail, Giant (giant foxtail [8]; [16]): 10 | Foxtail, Giant plant response rating (giant foxtail [8]; [17]): 0 | Foxtail, Giant plant response rating (giant foxtail [8]; [18]): 0 | Rice plant response rating (0 to 100 scale) (rice [9]; 125 g ai/ha): 0 | Plant response rating, Rice (rice [9]; 500 g ai/ha, visual rating): 20 | Morningglory plant response rating (0 to 100 scale) (morningglory [10]; [15]): 0 | Plant response rating, Morningglory (morningglory [10]; [16]): 0 | Morningglory plant response rating (morningglory [10]; [17]): 0 | Morningglory plant response rating (morningglory [10]; [18]): 0 | Oat, Wild plant response rating (wild oat; [17]): 10 | Oat, Wild plant response rating (wild oat; [18]): 30 | Barnyardgrass plant response rating (barnyardgrass [11]): 30 | Morningglory plant response rating (morningglory [12]; [19]): 10 | Plant response rating, Morningglory (morningglory [12]; [20]): 15 | Morningglory plant response rating (morningglory [12]; [21]): 5 | Morningglory plant response rating (morningglory [12]; [22]): 0 | Corn plant response rating (0 to 100 scale) (corn; [15]): 0 | Plant response rating, Corn (corn; [16]): 0 | Corn plant response rating (corn; [17]): 0 | Corn plant response rating (corn; [18]): 10 | Foxtail, Giant plant response rating (giant foxtail [13]; [19]): 20 | Plant response rating, Foxtail, Giant (giant foxtail [13]; [20]): 35 | Foxtail, Giant plant response rating (giant foxtail [13]; [21]): 55 | Foxtail, Giant plant response rating (giant foxtail [13]; [22]): 20 | Barnyardgrass plant response rating (barnyardgrass [14]; [19]): 30 | Plant response rating, Barnyardgrass (barnyardgrass [14]; [20]): 60 | Barnyardgrass plant response rating (barnyardgrass [14]; [21]): 85 | Barnyardgrass plant response rating (barnyardgrass [14]; [22]): 10 | Wheat plant response rating (wheat; [17]): 20 | Wheat plant response rating (wheat; [18]): 30
